Results on 19 molecules are retold here after US10364226B2, “Pyridazinone compounds and uses thereof” (priority 2013, dated 2019).

Assay [1] has as its system Influenza strain A549 A/WSN/33 (H1N1). Put plainly: Influenza Antiviral Assay. The format is cell-based, Influenza A virus. Conditions: Influenza A virus, A549, 20 h, neuraminidase fluorescence readout, read-out: % Inhibition.
A further assay has as its target EN PA (Influenza A virus, UniProt P15659). Put plainly: EN PA FRET Inhibition Assay. The format is biochemical. Conditions: read-out: Potency.

In the case of `CNC(=O)c1nn(CC2(c3cccc4c3cnn4C)CCCC2)cc(O)c1=O` [Compound 881], in assay [1], the EC50 was under 20 µM. Moreover, the IC50 on EN PA is under 0.1 µM.
For `CNC(=O)c1nn(CC2(c3cccc4nn(C)cc34)CCCC2)cc(O)c1=O` [Compound 882], in that order: under 20 µM and under 0.1 µM.
As to `CNC(=O)c1nn(CC2(n3cc(C(N)=O)c4cccnc43)CCCC2)cc(O)c1=O` [Compound 883], the EC50 in assay [1] is over 100 µM. The IC50 at EN PA was under 0.1 µM.
For `CNC(=O)c1nn(CC2(N3c4ccccc4C=Cc4ccccc43)CCCC2)cc(O)c1=O` [Compound 884], in that order: under 20 µM and under 0.1 µM.
Turning to `CNC(=O)c1nn(CC2(n3cc(C)c4cccnc43)C[C@@H]3[C@@H](CO)[C@@H]3C2)cc(O)c1=O` (some centres unmarked) [Compound 885], the EC50 in assay [1] is over 100 µM. Moreover, the IC50 on EN PA was in the range of 0.1 to 1 µM.
As to `CNC(=O)c1nn(CC2(n3ccc4cc(OC)cnc43)CCCC2)cc(O)c1=O` [Compound 886], the EC50 in assay [1] is under 20 µM. In addition, the IC50 at EN PA was under 0.1 µM.
For `CNC(=O)c1nn(CC2(n3cc(Cl)c4cc(Cl)cnc43)CCCC2)cc(O)c1=O` [Compound 887], in that order: under 20 µM and under 0.1 µM.
For `CNC(=O)c1nn(CC2(c3cc(C)c4cccnc4c3)CCCC2)cc(O)c1=O` [Compound 888], in that order: under 20 µM and under 0.1 µM.
Turning to `CNC(=O)c1nn(CC2(c3cc(C)cc4ncccc34)CCCC2)cc(O)c1=O` [Compound 889], in assay [1], the EC50 is under 20 µM. Also, the IC50 at EN PA is under 0.1 µM.
Take `CNC(=O)c1nn(CC2(c3ccc4cc(C)cnc4c3)CCCC2)cc(O)c1=O` [Compound 890]: in assay [1], the EC50 is under 20 µM. Further, the IC50 on EN PA is under 0.1 µM.
For `CNC(=O)c1nn(CC2(n3c4c(c5ccccc53)CCC4)CCCC2)cc(O)c1=O` [Compound 891], in that order: under 20 µM and under 0.1 µM.
For `CNC(=O)c1nn(CC2(n3cc(OC)c4cccnc43)CCCC2)cc(O)c1=O` [Compound 892], in that order: under 20 µM and under 0.1 µM.
For `CNC(=O)c1nn(CC2(c3cc4ccccc4cc3Cl)CCCC2)cc(O)c1=O` [Compound 893], in that order: under 20 µM and under 0.1 µM.
For the molecule `CNC(=O)c1nn(CC2(n3cc(C(C)=O)c4cc(C)cnc43)CCCC2)cc(O)c1=O` [Compound 894], the EC50 in assay [1] was under 20 µM. Also, the IC50 on EN PA is under 0.1 µM.
As to `O=C1NCCCCCOc2cccc(c2)C2(CCCC2)Cn2cc(O)c(=O)c1n2` [Compound 895], the EC50 in assay [1] was under 20 µM. The IC50 at EN PA is under 0.1 µM.
For `CNC(=O)c1nn(CC2(n3c4ccccc4c4ccccc43)CCCC2)cc(O)c1=O` [Compound 896], in that order: under 20 µM and under 0.1 µM.
For `CNC(=O)c1nn(CC2(c3ccc4c(C)cccc4c3)CCCC2)cc(O)c1=O` [Compound 897], in that order: under 20 µM and under 0.1 µM.
For `CNC(=O)c1nn(CC2(n3cc(C)c4cc(Cl)ccc43)CCCC2)cc(O)c1=O` [Compound 898], in that order: under 20 µM and under 0.1 µM.
As to `CNC(=O)c1nn(CC2(n3cc(Cl)c4cc(Cl)ccc43)CCCC2)cc(O)c1=O` [Compound 899], in assay [1], the EC50 was under 20 µM. Further, the IC50 at EN PA is under 0.1 µM.
